In patent US20260159536A1, “AKR1C3-ACTIVATED DNA ALKYLATING AGENT, AND MEDICAL APPLICATION THEREOF” (ASCENTAWITS PHARMACEUTICALS, LTD., priority 2021, published 2026):
Where “and” joins values, the source holds several entries; their conditions need not be identical. Identical values can stand only once. Like-named read-outs stand apart in the source and are kept apart here.

How the values were obtained:
[1] = MTD assay of AST-3424, single 30 min intravenous drip; format: in vivo, machins; conditions: for maximal tolerance dose: single dose; for day of test substance-related death: male
Procedure: The maximal tolerance dose in machins after a single administration of AST-3424 injection by intravenous drip for 30 minutes was evaluated.

MHCC97H = assay: Cytotoxicity on hepatocellular carcinoma cell line MHCC97H; format: cell-based
Procedure: If not otherwise specified, IC50 values were measured by the following experimental methods:
a) Cells were plated for 24 hours, and then the compounds acted singly. 99 μL of growth medium was supplemented per well, and then 1 μL of 200× compound was added, gently shaken to ensure uniform mixing, and then placed in a 37° C., 5% CO2 incubator.
b) The cell plate was placed in the incubator for 72 hours.
b) 100 μL of CTG reagent (CelltiterGlo kit) was added to each well, the plate was placed in a rapid oscillator and shaken for 2 minutes, and then placed at room temperature for 30 minutes away from light.
The IC50 was calculated using GraphPad Prism 8 software and the IC50 (half inhibitory concentration) of the compounds was obtained using the following non-linear fitting formula: […]
Using the same experimental methods as described above, Compounds A, B and C were further tested for cytotoxicity against different hepatocellular carcinoma (HCC) cell lines SNU354, SNU886, MHCC97H and huH-1, and the results were shown in Table 2 below: […]

[2] = Blood-brain barrier assay of Compound A (plasma and brain concentration, PK); format: in vivo, CD-1 mice; conditions: for concentration at 0.083 h / concentration at 0.25 h / concentration at 1 h / concentration at 2 h / concentration at 4 h / concentration at 8 h / Kp at 0.083 h / Kp at 0.25 h / Kp at 1 h / Kp at 2 h / Kp at 4 h / Kp at 8 h / Brain concentration / Plasma concentration / Ratio (Brain/Plasma): IV 1 mg/kg; for MRT inf: read-out: MRTInf_obs; for half-life: read-out: T½ (converted)
Procedure: Three CD-1 mice were administered 1 mg/kg of the test Compound A intravenously at each time point. Blood and brain tissue were taken at 5 min, 15 min, 1 h, 2 h, 4 h and 8 h after administration.
The PK (Pharmacokinetic) parameters obtained from the above assays were listed as follows, as shown in Table 33 and Table 34. • PK parameters, pharmacokinetic parameters. • T1/2, half-life. • Cl-obs, plasma clearance. • C0, starting concentration. • AUClast, area under the concentration-time curve from start of administration time to the last point. • AUCInf, area under the concentration-time curve from start of administration to the time at infinity. • Tmax, time to maximum observed plasma concentration. • Cmax, concentration to maximum observed plasma concentration. • MRTlnf-obs, represents the mean residence time from the start of administration to the time of theoretical extrapolation to infinity. • AUClnf Ration (Brain/Plasma), the ratio of the area under the concentration-time curve of serum and brain tissue from the start of administration to the time at infinity. • Unit, unit. • Mean, average value.

[3] = CD-1, mouse, iv, brain tissues, 1 mg/kg intravenously, Mean
[4] = CD-1, mouse, iv, plasma, 1 mg/kg intravenously, Mean
[5] = 0.083 h, individual animals, 1 mg/kg
[6] = 0.25 h, individual animals, 1 mg/kg
[7] = 1 h, individual animals, 1 mg/kg
[8] = 2 h, individual animals, 1 mg/kg
[9] = 4 h, individual animals, 1 mg/kg
[10] = 8 h, individual animals, 1 mg/kg
[11] = brain tissues, 1 mg/kg intravenously, Mean
[12] = plasma, 1 mg/kg intravenously, Mean

SMILES: C[C@@H](OP(=O)(N1CC1)N1CC1)c1ccc([N+](=O)[O-])c(Oc2cccc(C(=O)N(C)C)c2)c1 [AST-3424]
- maximal tolerance dose ([1]; female machins): 1.5 mg/kg
- clinical observation ([1]; female monkeys, 1.5 mg/kg): weight loss, decreased food consumption, diarrhoea and vomiting
- maximal tolerance dose ([1]; male machins): 0.5 mg/kg
- day of test substance-related death ([1]; 1.0 mg/kg): 16 days
- day of test substance-related death ([1]; 1.5 mg/kg): 8 days
- doses at which death of male monkeys was observed ([1]; single intravenous drip 30 minutes): ≥ 1.0 mg/kg

SMILES: O=[N+]([O-])c1ccc(C(OP(=O)(N2CC2)N2CC2)C(F)(F)F)cc1Oc1ccc(-c2ccc(F)cc2)c(F)c1 (racemic) [Compound A]
- IC50 (MHCC97H; Homo sapiens): 396 nM
- ratio A/B (MHCC97H; IC50 ratio): 1.63
- ratio A/C (MHCC97H; IC50 ratio): 0.70
- blood-brain barrier penetration ([2]; 1 mg/kg intravenously, within 8 hours): can effectively penetrate the blood-brain barrier
- concentration at 0.083 h ([2]; CD-1, mouse, brain, iv, 1 mg/kg, 0.083 h, individual animals, read-out: Brain concentration): 538 ng/g
- concentration at 0.25 h ([2]; CD-1, mouse, brain, iv, 1 mg/kg, 0.25 h, individual animals, read-out: Brain concentration): 419 ng/g
- concentration at 1 h ([2]; CD-1, mouse, brain, iv, 1 mg/kg, 1 h, individual animals, read-out: Brain concentration): 180 ng/g
- concentration at 2 h ([2]; CD-1, mouse, brain, iv, 1 mg/kg, 2 h, individual animals, read-out: Brain concentration): 107 ng/g
- concentration at 4 h ([2]; CD-1, mouse, brain, iv, 1 mg/kg, 4 h, individual animals, read-out: Brain concentration): 71.2 ng/g
- concentration at 8 h ([2]; CD-1, mouse, brain, iv, 1 mg/kg, 8 h, individual animals, read-out: Brain concentration): 23.6 ng/g
- Kp ([2]; CD-1, mouse, brain/plasma, iv, 1 mg/kg, 1 mg/kg intravenously, Mean, read-out: AUCInf Ratio (Brain/Plasma)): 0.8
- Kp at 0.083 h ([2]; CD-1, mouse, brain/plasma, iv, 1 mg/kg, 0.083 h, individual animals, read-out: Ratio (Brain/Plasma)): 1.17
- Kp at 0.083 h ([2]; CD-1, mouse, brain/plasma, iv, 1 mg/kg, 0.083 h, mean of 3 animals, read-out: Ratio (Brain/Plasma), Mean): 1.28
- Kp at 0.25 h ([2]; CD-1, mouse, brain/plasma, iv, 1 mg/kg, 0.25 h, individual animals, read-out: Ratio (Brain/Plasma)): 1.13
- Kp at 0.25 h ([2]; CD-1, mouse, brain/plasma, iv, 1 mg/kg, 0.25 h, mean of 3 animals, read-out: Ratio (Brain/Plasma), Mean): 1.15
- Kp at 1 h ([2]; CD-1, mouse, brain/plasma, iv, 1 mg/kg, 1 h, individual animals, read-out: Ratio (Brain/Plasma)): 0.8
- Kp at 1 h ([2]; CD-1, mouse, brain/plasma, iv, 1 mg/kg, 1 h, mean of 3 animals, read-out: Ratio (Brain/Plasma), Mean): 0.76
- Kp at 2 h ([2]; CD-1, mouse, brain/plasma, iv, 1 mg/kg, 2 h, individual animals, read-out: Ratio (Brain/Plasma)): 0.71
- Kp at 2 h ([2]; CD-1, mouse, brain/plasma, iv, 1 mg/kg, 2 h, mean of 3 animals, read-out: Ratio (Brain/Plasma), Mean): 0.67
- Kp at 4 h ([2]; CD-1, mouse, brain/plasma, iv, 1 mg/kg, 4 h, individual animals, read-out: Ratio (Brain/Plasma)): 0.74
- Kp at 4 h ([2]; CD-1, mouse, brain/plasma, iv, 1 mg/kg, 4 h, mean of 3 animals, read-out: Ratio (Brain/Plasma), Mean): 0.78
- Kp at 8 h ([2]; CD-1, mouse, brain/plasma, iv, 1 mg/kg, 8 h, individual animals, read-out: Ratio (Brain/Plasma)): 0.48
- Kp at 8 h ([2]; CD-1, mouse, brain/plasma, iv, 1 mg/kg, 8 h, mean of 3 animals, read-out: Ratio (Brain/Plasma), Mean): 0.52
- Cmax [2, 3]: 543 ng/g
- Tmax [2, 3]: 4.8 min
- MRT inf [2, 3]: 2.99 h
- half-life [2, 3]: 2.8 h
- AUC(0-inf) [2, 4]: 1200 ng·h/mL
- AUC(0-t) [2, 4]: 980 ng·h/mL
- C0 [2, 4]: 453 ng/mL
- MRT inf [2, 4]: 4.37 h
- half-life [2, 4]: 3.64 h
- concentration at 0.083 h ([2]; CD-1, mouse, plasma, iv, 1 mg/kg, 0.083 h, individual animals, read-out: Plasma concentration): 460 ng/mL
- concentration at 0.25 h ([2]; CD-1, mouse, plasma, iv, 1 mg/kg, 0.25 h, individual animals, read-out: Plasma concentration): 372 ng/mL
- concentration at 1 h ([2]; CD-1, mouse, plasma, iv, 1 mg/kg, 1 h, individual animals, read-out: Plasma concentration): 229 ng/mL
- concentration at 2 h ([2]; CD-1, mouse, plasma, iv, 1 mg/kg, 2 h, individual animals, read-out: Plasma concentration): 150 ng/mL
- concentration at 4 h ([2]; CD-1, mouse, plasma, iv, 1 mg/kg, 4 h, individual animals, read-out: Plasma concentration): 96.4 ng/mL
- concentration at 8 h ([2]; CD-1, mouse, plasma, iv, 1 mg/kg, 8 h, individual animals, read-out: Plasma concentration): 48.8 ng/mL
- Brain concentration [2, 5]: 540.75 ng/g and 549.95 ng/g
- Plasma concentration [2, 5]: 400.55 ng/mL and 416.19 ng/mL
- Ratio (Brain/Plasma) [2, 5]: 1.35 and 1.32
- Brain concentration [2, 6]: 489.60 ng/g and 371.38 ng/g
- Plasma concentration [2, 6]: 382.24 ng/mL and 384.54 ng/mL
- Ratio (Brain/Plasma) [2, 6]: 1.35 and 0.97
- Brain concentration [2, 7]: 188.68 ng/g and 169.85 ng/g
- Plasma concentration [2, 7]: 238.84 ng/mL and 249.07 ng/mL
- Ratio (Brain/Plasma) [2, 7]: 0.79 and 0.68
- Brain concentration [2, 8]: 94.27 ng/g and 77.50 ng/g
- Plasma concentration [2, 8]: 134.42 ng/mL and 131.84 ng/mL
- Ratio (Brain/Plasma) [2, 8]: 0.70 and 0.59
- Brain concentration [2, 9]: 68.47 ng/g and 42.73 ng/g
- Plasma concentration [2, 9]: 74.91 ng/mL and 63.17 ng/mL
- Ratio (Brain/Plasma) [2, 9]: 0.91 and 0.88
- Brain concentration [2, 10]: 21.85 ng/g and 18.85 ng/g
- Plasma concentration [2, 10]: 49.05 ng/mL and 29.91 ng/mL
- Ratio (Brain/Plasma) [2, 10]: 0.45 and 0.83
- AUCInf [2, 11]: 872.43 ng·h/g
- AUClast [2, 11]: 785.85 ng·h/g
- Cl_obs [2, 12]: 13.85 mL/min/kg
- Vss_obs [2, 12]: 3.63 L/kg
